The results in this text go back to US9357779B2 (priority 2010, dated 2016).

The conditions of data set [1]: acidic range, pH 2.7, 0.1% aqueous formic acid/acetonitrile.
Description: (§1) Calibration was carried out using unbranched alkan-2-ones (having from 3 to 16 carbon atoms) with known log P values (the log P values were determined by the retention times using linear interpolation between two successive alkanones).
A further data set deals with Plasmopara viticola. The experiment in a line: Plasmopara test (grapevine)/protective. The class given is in vivo. The note with it: protective, active compound concentration 500 ppm, evaluation 6 days after inoculation. As to the method:
Plasmopara Test (Grapevine)/Protective
To produce a suitable preparation of active compound, 1 part by weight of active compound is mixed with the stated amounts of solvent and emulsifier, and the concentrate is diluted with water to the desired concentration.
To test for protective activity, young plants are sprayed with the preparation of active compound at the stated application rate. After the spray coating has dried on, the plants are inoculated with an aqueous spore suspension of Plasmopara viticola and then remain in an incubation cabin at about 20° C. and 100% relative atmospheric humidity for 1 day. The plants are then placed in a greenhouse at about 21° C. and about 90% atmospheric humidity for 4 days. The plants are then moistened and placed in an incubation cabin for 1 day.
Evaluation is carried out 6 days after the inoculation. 0% means an efficacy which corresponds to that of the control, whereas an efficacy of 100% means that no infection is observed.

The test system of another data set is Phytophthora infestans. The class given is in vivo. The note with it: tomato plants, protective, active compound concentration 500 ppm, evaluation 7 days after inoculation.
Where [2] appears, read: pH 2.7, log P [a], acidic range, pH 2.7, 0.1% aqueous formic acid/acetonitrile.

Description for physchem: as §1

On to `CC1CCCCC1C(=O)C=Cc1csc(C2CCN(C(=O)Cn3nc(C(F)F)cc3C(F)F)CC2)n1` (mixture of isomers) [Compound I-50], for which, in data set [1], the “log P [a]” value is 4.11^[a]. Also, the efficacy is on record as 93% in the data set with Plasmopara viticola and 95% with Phytophthora infestans.

Compound `O=C(/C=C/c1csc(C2CCN(C(=O)Cn3nc(C(F)F)cc3C(F)F)CC2)n1)c1c(F)cccc1F` [Compound I-22, (2E)-3-[2-(1-{[3,5-Bis(difluoromethyl)-1H-pyrazol-1-yl]acetyl}piperidin-4-yl)-1,3-thiazol-4-yl]-1-(2,6-difluorophenyl)prop-2-en-1-one] gave a chromatographic logP in the data set “physchem” (setting [2]) of 3.35. For the same compound, the efficacy with Plasmopara viticola and in the data set with Phytophthora infestans was 100% in each case.

As to `O=C(CC1CCCCC1)c1csc(C2CCN(C(=O)Cn3nc(C(F)F)cc3C(F)F)CC2)n1` [Compound I-24, 2-[3,5-Bis(difluoromethyl)-1H-pyrazol-1-yl]-1-{4-[4-(cyclohexylacetyl)-1,3-thiazol-2-yl]piperidin-1-yl}ethanone], the efficacy in the data set on Plasmopara viticola was 100%; in the data set with Phytophthora infestans it was 94%.

On to `Cc1ccc(Cl)cc1NC(=O)N1CCC(c2nc(C(=O)CC3CCCCC3)cs2)CC1` [Compound I-25, N-(5-Chloro-2-methylphenyl)-4-[4-(cyclohexylacetyl)-1,3-thiazol-2-yl]piperidine-1-carboxamide], for which the chromatographic logP turned out to be 4.51 in the data set “physchem” (setting [2]) and 4.55 in “physchem” (pH 7.8). For the same compound, the efficacy in the data set on Plasmopara viticola was found to be 96%; in the data set with Phytophthora infestans, 100%.

Consider `O=C(/C=C/c1csc(C2CCN(C(=O)Cn3nc(C(F)F)cc3C(F)F)CC2)n1)c1ccccc1Br` [Compound I-29], for which, in data set [1], the “log P [a]” value was 3.51^[a];. The values for the efficacy in the data set on Plasmopara viticola and with Phytophthora infestans were 95% and 100%, respectively.

Turning to `O=C(CC1CCCCC1)c1csc(C2CCN(C(=O)Nc3cc(C(F)F)ccc3C(F)F)CC2)n1` [Compound I-30], the “log P [a]” value in data set [1] is 4.3^[a];. In addition, the efficacy turned out to be 85% with Plasmopara viticola and 95% with Phytophthora infestans.

Turning to `O=C(/C=C/c1csc(C2CCN(C(=O)Cn3nc(C(F)F)cc3C(F)F)CC2)n1)c1ccccc1I` [Compound I-33], the “log P [a]” value in data set [1] is 3.65^[a];. For the same compound, the efficacy amounted to 89% in the data set with Plasmopara viticola and 95% in the data set with Phytophthora infestans.

As to `O=C(/C=C/c1csc(C2CCN(C(=O)Cn3nc(C(F)F)cc3C(F)F)CC2)n1)c1ccc(F)cc1Br` [Compound I-34], the “log P [a]” value in data set [1] is 3.7^[a];. The values for the efficacy in the data set on Plasmopara viticola and with Phytophthora infestans were 84% and 95%, respectively.

As for `O=C(/C=C/c1csc(C2CCN(C(=O)Cn3nc(C(F)F)cc3C(F)F)CC2)n1)c1cc(F)ccc1Cl` [Compound I-35], the “log P [a]” value in data set [1] is 3.64^[a];. Also, the efficacy with Plasmopara viticola was found to be 89%; in the data set with Phytophthora infestans, 95%.

Regarding `O=C(/C=C/c1csc(C2CCN(C(=O)Cn3nc(C(F)F)cc3C(F)F)CC2)n1)c1c(F)cccc1Cl` [Compound I-36], in data set [1], the “log P [a]” value was 3.54^[a];. In addition, the efficacy is listed as 96% in the data set with Plasmopara viticola and 100% in the data set with Phytophthora infestans.

Regarding `O=C(/C=C/c1csc(C2CCN(C(=O)Cn3nc(C(F)F)cc3C(F)F)CC2)n1)c1ccccc1Cl` [Compound I-42], the “log P [a]” value in data set [1] was 3.51^[a]. Also, the efficacy was 90% in the data set on Plasmopara viticola and 100% in the data set with Phytophthora infestans.

As to `O=C(/C=C/c1csc(C2CCN(C(=O)Cn3nc(C(F)F)cc3C(F)F)CC2)n1)c1c(Cl)cccc1Cl` [Compound I-43], the “log P [a]” value in data set [1] is 3.7^[a]. Further, the values for the efficacy with Plasmopara viticola and in the data set on Phytophthora infestans were 100% and 90%, respectively.

In the case of `O=C(/C=C/c1csc(C2CCN(C(=O)Cn3nc(C(F)F)cc3C(F)F)CC2)n1)C1CCCCC1` [Compound I-44], the “log P [a]” value in data set [1] is 3.89^[a]. Also, the efficacy in the data set on Plasmopara viticola was 74%; with Phytophthora infestans it was 95%.

For `Cc1ccccc1C(=O)/C=C/c1csc(C2CCN(C(=O)Cn3nc(C(F)F)cc3C(F)F)CC2)n1` [Compound I-45], the “log P [a]” value in data set [1] is 3.56^[a]. Also, the figures for the efficacy with Plasmopara viticola and with Phytophthora infestans were 100% and 95%, respectively.

Take `O=C(/C=C/c1csc(C2CCN(C(=O)Cn3nc(C(F)F)cc3C(F)F)CC2)n1)c1cccc2ccccc12` [Compound I-46]: in data set [1], the “log P [a]” value is 2.84^[a]. Moreover, the efficacy in the data set on Plasmopara viticola is listed as 100%; in the data set with Phytophthora infestans it was 95%.

As to `O=C(/C=C/c1csc(C2CCN(C(=O)Cn3nc(C(F)F)cc3C(F)F)CC2)n1)C1CCCC1` [Compound I-49], in data set [1], the “log P [a]” value was 3.52^[a]. Further, the efficacy in the data set on Plasmopara viticola stood at 79%; in the data set on Phytophthora infestans, 90%.

Take `CC(CC(=O)c1c(F)cccc1F)c1csc(C2CCN(C(=O)Cn3nc(C(F)F)cc3C(F)F)CC2)n1` (stereo not shown) [Compound I-51]: the efficacy in the data set on Plasmopara viticola worked out at 100%; in the data set on Phytophthora infestans, 98%.

Regarding `O=C(/C=C/c1csc(C2CCN(C(=O)Cn3nc(C(F)F)cc3C(F)F)CC2)n1)c1cccc(F)c1` [Compound I-52], the “log P [a]” value in data set [1] was 3.35^[a]. For the same compound, the efficacy with Plasmopara viticola amounted to 94%; in the data set on Phytophthora infestans, 98%.

For the compound `C#CCOc1ccccc1C(=O)/C=C/c1csc(C2CCN(C(=O)Cn3nc(C(F)F)cc3C(F)F)CC2)n1` [Compound I-55], in data set [1], the “log P [a]” value was 3.28^[a]. Moreover, the efficacy in the data set on Plasmopara viticola is 100%; with Phytophthora infestans it was 98%.

Consider `O=C(/C=C/c1csc(C2CCN(C(=O)Cn3nc(C(F)F)cc3C(F)F)CC2)n1)c1c(F)cc(F)cc1F` [Compound I-57], for which the “log P [a]” value in data set [1] was 3.51^[a];. Also, the efficacy in the data set on Plasmopara viticola turned out to be 91%; in the data set with Phytophthora infestans it was 98%.

Regarding `CON=C(CC1CCCCC1)c1csc(C2CCN(C(=O)Cn3nc(C(F)F)cc3C(F)F)CC2)n1` [Compound I-60, 2-[3,5-Bis(difluoromethyl)-1H-pyrazol-1-yl]-1-{4-[4-(2-cyclohexyl-N-methoxyethanimidoyl)-1,3-thiazol-2-yl]piperidin-1-yl}ethanone], the chromatographic logP in the data set “physchem” (setting [2]) came out at 4.8. This compound also had an efficacy in the data set on Phytophthora infestans of 95%.

One may read the chromatographic logP as lipophilicity estimated from chromatographic retention. Higher therefore signals higher lipophilicity.
